Source: paper PMC12597941 (Frontiers in Pharmacology, 2025)

Key:
[1] = Plasma levels of terpene lactones, flavonol aglycones and PAC metabolites in T-maze mice; format: in vivo
Experimental: Targeted LC-MS/MS was used to quantify known and newly identified PAC metabolites (MRM transitions based on MS2 spectra of the untargeted analysis), as well as main ginkgo terpene lactones and flavonol aglycones in one single run in mouse plasma obtained from the pharmacological experiments (Supplementary Table S1).
The injection volume was 10 µL. […] Data processing was carried out with MassHunter Quantitative Analysis 10.1 software.
Plasma levels of terpene lactones (ginkgolide A, ginkgolide B, and bilobalide) and main ginkgo flavonol aglycones (quercetin, kaempferol, and isorhamnetin) were quantified in samples from animals used in the T-maze model. The detailed protocols for the analysis methods are included in the Supplementary Material.
Quantification of Acetylcholine in plasma […]
as described in the manufacturer’s instructions. […]
for 30 min at room temperature. […]
subtracted and of ACh concentration was calculated.
Flavonol aglycone quantification in plasma […]
methanol. […]
Data processing was conducted with mass hunter quantitative analysis 10.1.
Terpene lactone quantification in plasma […]
An Agilent 7890B GC (Agilent, Santa Clara, CA) coupled to an Agilent 7000D triple-quadrupole MS (Agilent, Santa Clara, CA) was used to analyze all samples. […] Target analytes were analyzed in negative ion chemical ionization with multiple reaction monitoring (MRM) mode using […]

[2] = Untargeted LC-HRMS metabolite profiling after oral PAC administration
Experimental: Animals to be sacrificed at 6 h (only test item-treated animals) were placed in metabolic cages (650-0100, Nalgene) for the collection of urine. Urine was stabilized with a final concentration of 4 mM NaN3 and stored at 4 °C. At 1 h and 6 h after the administration of the vehicle (1 h only) or test items (1 and 6 h), animals from the respective treatment groups were euthanized by CO2 inhalation. Blood was obtained by cardiac puncture and drawn in lithium-heparin-containing vials for the preparation of plasma by centrifugation (4,000 rpm, 4 °C, 10 min). Plasma was stored at −80 °C until bioanalytical analysis. Samples of the mixed intestinal content were obtained by scraping the small intestine, cecum, and large intestine into a 5-mL tube. Tubes were covered with gaseous N2 and stored at −80 °C.
The supernatant was evaporated to dryness and resuspended in 150 µL 1% FA in H2O/ACN (9/1, v/v) for analysis.
Rat intestinal content was first freeze-dried and finely crushed. […] Ethyl acetate extracts were evaporated to dryness and then resuspended in 300 µL 1% FA in H2O/ACN (9/1, v/v) for untargeted LC-HRMS analysis. Internal standards (listed in Supplementary Table S1) were spiked to both the sample types to ensure the performance of the measurements and monitor matrix effect.
Untargeted metabolite profiling was performed using a Vanquish UHPLC coupled with an Orbitrap Fusion Tribrid mass spectrometer (Thermo Fisher Scientific, Waltham, MA, United States of America) fitted with a HESI source. Chromatographic separation was performed on Waters Acquity HSS T3 1.8 µm Column (2.1 mm × 150 mm) (Waters Technologies, United States of America). The injection volume was 5 µL. The flow rate was set at 0.45 mL/min, and the column temperature was 40 °C. […] The gradient was as follows: 0% B from 0 to 2 min, 0%–10% B from 2 to 10 min, 10%–80% B from 10 to 25 min, 80%–100% B from 25 to 26 min, 100% B from 26 to 31 min, 100%–0% B from 31 to 32 min, and 3 min equilibration at 0% B.
Compound discoverer 3.1 (CD, Thermo Fisher Scientific, Waltham, MA, United States of America) was used for untargeted and novel feature detection. Raw files were processed with CD in the following steps: first, spectra were selected from raw data followed by retention time (RT) alignment with RT tolerance of 2 min and 5 ppm mass precision. Then, unknown compounds were detected and grouped with RT tolerance of 0.5 min and 5 ppm mass deviation. Missing values were filled. The composition was predicted based on the exact mass. The compounds were annotated with different types of databases. mzCloud was used to annotate compounds on the MS/MS level with a mass tolerance of 10 ppm. ChemSpider was used to annotate features based on the exact mass with a mass tolerance of 20 ppm.
Relevant features were identified by performing differential analysis between the vehicle and PAC treatment groups in Compound Discoverer software. […] Compound annotations of these features were checked for plausibility, and, if necessary, structural elucidation was manually continued.

[3] = tested on: scopolamine-induced working memory impairment; assay: T-maze spontaneous alternation, scopolamine-induced memory impairment; format: in vivo; details: mice, p.o. 1 h before T-maze; donepezil 0.3 mg/kg
Experimental: To impair short-term memory, mice were injected intraperitoneally (i.p.) with 1 mg/kg scopolamine (S1875, Sigma-Aldrich) or 0.9% NaCl (PZN01399062, Fresenius) 20 min prior to the experimental session. […] Switching from the right to the left arm of the T-maze or vice versa was calculated as correct alternations (%). The method is based on the study by [Deacon (2006)]. At 15 min after the start of the T-maze observation and once the 20 arm entry trials were finalized, animals were euthanized with CO2, and blood was collected by cardiac puncture for EDTA-plasma (Figure 1).
Data were analyzed using GraphPad Prism 10.1.2 (GraphPad Software, La Jolla, CA). Experimental groups were compared using one-way analysis of variance (ANOVA) or two-way ANOVA, followed by Dunnett’s post-test. Vehicle and each active treatment group were compared to the vehicle–scopolamine group (that received vehicle p.o., followed by i.p. injection of scopolamine). For calculation of dose–response curves, reversal of the scopolamine-induced amnesia was calculated. […] For ROS data, baseline ROS levels without treatment were set as 0% inhibition. […] Emax, and relative ID50 values for the T-maze in vivo studies were taken directly from the calculated dose–response curve data provided by Graph Pad Prism. […]

[4] = after oral PACs, c = detected in mice plasma

Row | Compound | Compartment in which the metabolite was detected [2, 4] | Time points at which the metabolite was detected ([2]; after oral PACs) [h] | also measured
1 | O=C(O)c1cc(O)c(O)c(O)c1 [M01, Gallic acid] | – | – | plasma level versus PAC dose ([1]; plasma of PAC-treated mice, approximately 1 h 15 min after administration): dose-dependent increase; Time points at which the metabolite was detected ([2]; rat, in vivo, po): 6 h
2 | Oc1cc(O)c2c(c1)O[C@H](c1cc(O)c(O)c(O)c1)[C@@H](O)C2 [M04, Gallocatechin] | Intestine | – | –
3 | COc1cc(C=O)ccc1O[C@@H]1O[C@H](C(=O)O)[C@@H](O)[C@H](O)[C@H]1O [M07, Vanillin glucuronide] | Urine | – | –
4 | O=C1CCC(Cc2cc(O)c(O)c(O)c2)O1 (stereo not shown) [M08, 5-(3',4',5'-trihydroxyphenyl)-gamma-Valerolactone] | Intestine | 6 | –
5 | Oc1cc(O)c(CC(O)Cc2cc(O)c(O)c(O)c2)c(O)c1 (stereo not shown) [M09, 1-(3‘,4‘,5‘-trihydroxyphenyl)-3-(2‘‘,4‘‘,6‘‘-trihydroxyphenyl)propan-2-ol] | Intestine | 6 | –
6 | Oc1cc(O)c2c(c1)O[C@H](c1cc(O)c(O)c(O)c1)[C@H](O)C2 [M10, Epigallocatechin] | Intestine | – | –
7 | Oc1cc(O)c2c(c1)OC(c1ccc(O)c(O)c1)C(O)C2 (stereo not shown) [M11, Catechin] | Intestine | 6 | –
8 | O=C1CCC(Cc2cc(O)cc(O)c2)O1 (stereo not shown) [M12, 5-(3‘,5‘-Dihydroxyphenyl)-γ-Valerolactone] | Intestine | 6 | –
9 | O=C1CCC(Cc2ccc(O)c(O)c2)O1 (stereo not shown) [M13, 5-(3‘,4‘-Dihydroxyphenyl)-γ-Valerolactone] | Intestine | 6 | –
10 | Oc1cc(O)c(CC(O)Cc2ccc(O)c(O)c2)c(O)c1 (stereo not shown) [M14, 1-(3′,4′-dihydroxyphenyl)-3-(2″,4″,6″-trihydroxyphenyl)propan-2-ol] | Intestine | 6 | –
11 | O=C(O[C@@H]1Cc2c(O)cc(O)cc2O[C@@H]1c1cc(O)c(O)c(O)c1)c1cc(O)c(O)c(O)c1 [M15, Epigallocatechin gallate] | Intestine | 1 | –
12 | COc1cc(C(O)C(O)/C(=C\C(=O)O)c2ccccc2)cc(O)c1O (stereo not shown) [M17, (2Z)-5-(3,4-dihydroxy-5-methoxyphenyl)-4,5-dihydroxy-3-phenylpent-2-enoic acid] | Intestine | 6 | –
13 | O=C(O)[C@H]1O[C@@H](Oc2c(-c3cc(O)c(O)c(O)c3)oc3cc(O)cc(O)c3c2=O)[C@H](O)[C@@H](O)[C@@H]1O [M18, Myricetin 3-O-glucuronide] | Intestine | 1 | –
14 | COc1cc(-c2oc3cc(O)cc(O)c3c(=O)c2O[C@@H]2O[C@H](C(=O)O)[C@@H](O)[C@H](O)[C@H]2O)cc(O)c1O [M19, 5'-O-methyl Myricetin 3-O-glucuronide] | Intestine | 1 | –
15 | O=c1c(O)c(-c2cc(O)c(O)c(O)c2)oc2cc(O)cc(O)c12 [M20, Myricetin] | – | – | Compartment in which the metabolite was detected ([2]; rat, in vivo, po): Intestine; Time points at which the metabolite was detected ([2]; rat, in vivo, po): 1h, 6h
16 | COc1cc(O)cc2oc(-c3cc(O)c(O)c(O)c3)c(O)c(=O)c12 [M21, 5-O-Methylmyricetin] | Urine | 6 | –
17 | COc1cc2c(cc1OC)C(=O)C(CC1CCN(Cc3ccccc3)CC1)C2 (stereo not shown) [donepezil] | – | – | effect on scopolamine-induced impairment of correct alternations [3]: largely prevented
18 | Gallic acid glucuronide [M03] | Urine | – | –
19 | Gallic acid-O-sulphate [M02] | Plasmac | – | time of peak plasma level ([1]; mouse plasma, after PAC fraction 100 mg/kg p.o., peak area): 1 h
20 | Methylgallic acid-O-sulphate [M06] | Urine | – | –
